Legend:
Format in all cases: cell-based
NCI-H460 = experiment: Proliferation assay (crystal violet), NCI-H460; conditions: Homo sapiens, 96 h; NCI-H460, 4 days; read-out: Inhibition of proliferation IC50 NCI-H460
Protocol: (§1) Cultivated tumor cells (cells were ordered from ATCC, except HeLa-MaTu and HeLa-MaTu-ADR, which were ordered from EPO-GmbH, Berlin) were plated at a density of 1000 to 5000 cells/well, depending on the growth rate of the respective cell line, in a 96-well multititer plate in 200 μL of their respective growth medium supplemented 10% fetal calf serum. After 24 hours, the cells of one plate (zero-point plate) were stained with crystal violet (see below), while the medium of the other plates was replaced by fresh culture medium (200 μl), to which the test substances were added in various concentrations (0 μM, as well as in the range of 0.001-10 μM; the final concentration of the solvent dimethyl sulfoxide was 0.5%). The cells were incubated for 4 days in the presence of test substances. Cell proliferation was determined by staining the cells with crystal violet: the cells were fixed by adding 20 μl/measuring point of an 11% glutaric aldehyde solution for 15 minutes at room temperature. After three washing cycles of the fixed cells with water, the plates were dried at room temperature. The cells were stained by adding 100 μl/measuring point of a 0.1% crystal violet solution (pH 3.0). After three washing cycles of the stained cells with water, the plates were dried at room temperature. The dye was dissolved by adding 100 μl/measuring point of a 10% acetic acid solution. Absorption was determined by photometry at a wavelength of 595 nm. The change of cell number, in percent, was calculated by normalization of the measured values to the absorption values of the zero-point plate (=0%) and the absorption of the untreated (0 μm) cells (=100%). The IC50 values were determined by means of a 4 parameter fit.

DU145 = experiment: Proliferation assay (crystal violet), DU145; conditions: Homo sapiens, DU-145, 96 h; DU145, 4 days; read-out: Inhibition of proliferation IC50 DU145
Protocol: as §1

HeLa-MaTu-ADR = experiment: Proliferation assay (crystal violet), HeLa-MaTu-ADR; conditions: 96 h, 4 days, read-out: Inhibition of proliferation IC50 HeLa-MaTu-ADR
Protocol: as §1

Caco2 = experiment: Proliferation assay (crystal violet), Caco2; conditions: Homo sapiens, Caco-2, 96 h; Caco2, 4 days; read-out: Inhibition of proliferation IC50 Caco2
Protocol: as §1

B16F10 = experiment: Proliferation assay (crystal violet), B16F10; conditions: Mus musculus, B16-F10, 96 h; B16F10, 4 days; read-out: Inhibition of proliferation IC50 B16F10
Protocol: as §1

| IC50 (NCI-H460) | IC50 (DU145) | IC50 (HeLa-MaTu-ADR) | IC50 (Caco2) | IC50 (B16F10) | SMILES |
| --- | --- | --- | --- | --- | --- |
| 340 nM | 650 nM | 350 nM | 350 nM | 510 nM | CCc1cnc(Nc2snc(C)c2C(=O)Nc2ccc(F)c(F)c2)cn1 [Example 79, N-(3,4-Difluorophenyl)-5-[(5-ethylpyrazin-2-yl)amino]-3-methyl-1,2-thiazole-4-carboxamide] |
| 240 nM | 680 nM | 230 nM | 210 nM | 200 nM | Cc1nsc(Nc2cnc(C(F)(F)F)cn2)c1C(=O)Nc1ccc(F)c(F)c1 [Example 81, N-(3,4-Difluorophenyl)-3-methyl-5-{[5-(trifluoromethyl)pyrazin-2-yl]amino}-1,2-thiazole-4-carboxamide] |
| 3000 nM | 3000 nM | 1100 nM | 1500 nM | 2000 nM | CCNc1cncc(Nc2snc(C)c2C(=O)Nc2ccc(F)c(F)c2)n1 [Example 78, N-(3,4-Difluorophenyl)-5-{[6-(ethylamino)pyrazin-2-yl]amino}-3-methyl-1,2-thiazole-4-carboxamide] |
| 210 nM | 320 nM | 180 nM | 210 nM | 160 nM | Cc1nsc(Nc2cncc(-n3cccn3)n2)c1C(=O)Nc1ccc(Cl)c(F)c1 [Example 67, N-(4-Chloro-3-fluorophenyl)-3-methyl-5-{[6-(1H-pyrazol-1-yl)pyrazin-2-yl]amino}-1,2-thiazole-4-carboxamide] |
| 56 nM | 270 nM | 130 nM | 170 nM | 140 nM | Cc1nsc(Nc2cncc(C(F)(F)F)n2)c1C(=O)Nc1ccc(F)c(F)c1 [Example 82, N-(3,4-Difluorophenyl)-3-methyl-5-{[6-(trifluoromethyl)pyrazin-2-yl]amino}-1,2-thiazole-4-carboxamide] |
| 180 nM | 280 nM | 94 nM | 180 nM | 220 nM | Cc1nsc(Nc2cnc(Br)cn2)c1C(=O)Nc1ccc(F)c(F)c1 [Example 77, 5-[(5-Bromopyrazin-2-yl)amino]-N-(3,4-difluorophenyl)-3-methyl-1,2-thiazole-4-carboxamide] |
| 120 nM | 190 nM | 130 nM | 160 nM | 170 nM | Cc1nsc(Nc2cnc(Cl)cn2)c1C(=O)Nc1ccc(F)c(F)c1 [Example 74, 5-[(5-Chloropyrazin-2-yl)amino]-N-(3,4-difluorophenyl)-3-methyl-1,2-thiazole-4-carboxamide] |
| 170 nM | 510 nM | 260 nM | 310 nM | 320 nM | CCc1ccccc1NC(=O)c1c(C)nsc1Nc1cnc2cc(Cl)ccc2n1 [Example 86, 5-[(6-Chloroquinoxalin-2-yl)amino]-N-(2-ethylphenyl)-3-methyl-1,2-thiazole-4-carboxamide] |
| 420 nM | 700 nM | 360 nM | 370 nM | 500 nM | COc1ccc(NC(=O)c2c(C)nsc2Nc2cnc(C(F)(F)F)cn2)cn1 [Example 85, N-(6-methoxypyridin-3-yl)-3-methyl-5-{[5-(trifluoromethyl)pyrazin-2-yl]amino}-1,2-thiazole-4-carboxamide] |
| 260 nM | 740 nM | 370 nM | 350 nM | 250 nM | Cc1nsc(Nc2ccc(C(F)(F)F)nn2)c1C(=O)Nc1ccc(F)c(F)c1 [Example 83, N-(3,4-Difluorophenyl)-3-methyl-5-{[6-(trifluoromethyl)pyridazin-3-yl]amino}-1,2-thiazole-4-carboxamide] |
| 350 nM | 570 nM | 320 nM | 240 nM | 330 nM | Cc1nsc(Nc2cnc3cc(C(F)(F)F)ccc3n2)c1C(=O)Nc1ccc(Cl)c(F)c1 [Example 68, N-(4-Chloro-3-fluorophenyl)-3-methyl-5-{[6-(trifluoromethyl)quinoxalin-2-yl]amino}-1,2-thiazole-4-carboxamide] |
| 2000 nM | 6900 nM | 1800 nM | 2400 nM | 2700 nM | CCc1ccccc1NC(=O)c1c(C)nsc1Nc1cc(C#N)ccn1 [Example 4, 5-[(4-Cyanopyridin-2-yl)amino]-N-(2-ethylphenyl)-3-methyl-1,2-thiazole-4-carboxamide] |
| 140 nM | 290 nM |  | 190 nM | 140 nM | Cc1nsc(Nc2ccc(C#N)cn2)c1C(=O)Nc1ccc(Cl)c(Cl)c1 [Example 62, 5-[(5-Cyanopyridin-2-yl)amino]-N-(3,4-dichlorophenyl)-3-methyl-1,2-thiazole-4-carboxamide] |
| 620 nM | 510 nM | 100 nM | 320 nM | 390 nM | CCNC(=O)c1cncc(Nc2snc(C)c2C(=O)Nc2ccc(F)c(F)c2)n1 [Example 73, 6-({4-[(3,4-Difluorophenyl)carbamoyl]-3-methyl-1,2-thiazol-5-yl}amino)-N-ethylpyrazine-2-carboxamide] |
| 180 nM | 430 nM | 230 nM | 240 nM | 220 nM | Cc1nsc(Nc2cncc(Cl)n2)c1C(=O)Nc1ccc(F)c(F)c1 [Example 71, 5-[(6-Chloropyrazin-2-yl)amino]-N-(3,4-difluorophenyl)-3-methyl-1,2-thiazole-4-carboxamide] |
| 230 nM | 430 nM | 240 nM | 220 nM | 250 nM | Cc1nsc(Nc2cnc3cc(C(F)(F)F)ccc3n2)c1C(=O)Nc1ccc(F)c(F)c1 [Example 60, N-(3,4-Difluorophenyl)-3-methyl-5-{[6-(trifluoromethyl)quinoxalin-2-yl]amino}-1,2-thiazole-4-carboxamide] |
| 260 nM | 470 nM | 270 nM | 720 nM | 470 nM | Cc1nsc(Nc2cncc(-n3cccn3)n2)c1C(=O)Nc1ccc(F)c(F)c1 [Example 64, N-(3,4-Difluorophenyl)-3-methyl-5-{[6-(1H-pyrazol-1-yl)pyrazin-2-yl]amino}-1,2-thiazole-4-carboxamide] |
| 2900 nM | 2900 nM | 530 nM | 1300 nM | 3000 nM | CNC(=O)c1cnc(Nc2snc(C)c2C(=O)Nc2ccc(F)c(F)c2)cn1 [Example 75, 5-({4-[(3,4-Difluorophenyl)carbamoyl]-3-methyl-1,2-thiazol-5-yl}amino)-N-methylpyrazine-2-carboxamide] |
| 180 nM | 840 nM | 330 nM | 240 nM | 290 nM | COc1ccc(NC(=O)c2c(C)nsc2Nc2cncc(C(F)(F)F)n2)cn1 [Example 84, N-(6-methoxypyridin-3-yl)-3-methyl-5-{[6-(trifluoromethyl)pyrazin-2-yl]amino}-1,2-thiazole-4-carboxamide] |
